Data set [1] can be described thus: MTT assay, toxicity on HEKa cells. Format: cell-based. The note with it: human, normalized to non-treated cells, read-out: Cell viability. The protocol: (§1) Toxicity of cycled peptides A and B was analyzed on human dermal fibroblasts (HDFa) and adult human epidermal keratinocytes HEKa cells by MTT assay. A stock solution of the peptide was prepared in distilled water at 25 mg/mL. This stock solution was further diluted to obtain the final working concentrations (0.001, 0.005, 0.01, 0.05, 0.1 and 0.5 mg/mL) in the corresponding culture medium. Untreated cells were used as negative control samples (Basal).
(§2) Briefly, HEKa and HDFa cells were seeded in 96-well plates at a concentration of 1×10^5 cells/mL in a final volume of 200 µL of medium (20,000 cells/well). HEKa cells were incubated in Dermal Cell Basal Medium supplemented with the Keratinocytes Growth Kit; and HDFa cells were cultured in Medium 106 supplemented with 2% of LSGS. Cells were incubated at 37°C, 5% CO2 and saturated humidity.
(§3) After 24 h of incubation, cells were treated with different concentrations of each peptide (0.001, 0.005, 0.01, 0.05, 0.1 and 0.5 mg/mL) in triplicates, for MTT evaluation. After 24 h of treatment with the peptide, medium was completely removed, and 100 µL of 0.5 mg/mL MTT solution in supplemented medium were added to each well and cells were incubated at 37°C for 3 h. After incubating with MTT, the medium of each well was aspirated and 150 µL of DMSO were added in order to solubilise the formazan crystals formed. The plates were placed on a shaker for 5 minutes for complete solubilisation of the crystals and then the absorbance at 570 nm of each well was determined, using the microplate reader Multiskan FC, which is directly proportional to the number of living cells in culture.
(§4) Absorbance values were normalized using the data obtained for non-treated cells (control), obtaining the % of viability shown in Tables 1 and 2. Each condition was performed in triplicate (n=3) in 3 independent experiments (N=3).
(§5) Concentrations of peptide for which viability is above 80% are considered safe for efficacy testing. On the contrary, concentrations for which viability goes below 80% are considered potentially toxic and are not used for efficacy testing purposes. Table 1: Toxicity of cycled peptides on HDFa cells.

A short description of data set [2]: MTT assay, toxicity on HDFa cells. The class given is cell-based. The note with it: human, normalized to non-treated cells, read-out: Cell viability. The protocol: as §1, §2, §3, §4, §5
On the technique in general: Formazan colour is commonly taken as a measure of viable cells.

Data set [3] relates to CALR. The data set is described as follows: RT-qPCR expression of CALR gene in HEKa. The note with it: 0.01 mg/mL, 24 hours, qPCR (Table 5). (In general: Real-time PCR tracks product formation cycle by cycle.)
Description: HEKa cells were incubated in the presence of 0.01 mg/mL cycled peptide B for 24 hours and HDFa cells were treated with 0.05 mg/mL of cycled peptide B for 6 h. Then, cells were lysed, and RNA was extracted (RNeasy mini kit, Qiagen). Purified RNAs were retro-transcribed (High-capacity cDNA reverse transcription kit, Applied Biosystems). RT-qPCR was performed with the panel of TaqMan assay probes (Thermo Fisher Scientific) using StepOne plus Real time PCR instrument. […] The obtained data were analyzed using the ΔΔCt method, which provides the target gene expression values as fold changes in the treated sample compared with an untreated basal sample. Both samples were normalized with the relative expression of the housekeeping gene GAPDH.
Additionally, expression of CALR after treatment with 0.01 mg/mL of cycled peptides A and B for 24 hours in HEKa cells was analyze by qPCR as described in example 3.
For data set [4], the system named is Caspase 3 (CASP3). The data set is described as follows: Caspase 3 activity under BFA-induced endoplasmic reticulum stress in HEKa (Caspase-Glo 3/7). The class given is cell-based, human. Particulars: BFA-induced ER stress, 24 h, vs BFA-treated cells (Figure 5). The protocol:
Caspase 3 (CASP3) is a protein member of the cysteine-aspartic acid protease family. Sequential activation of caspases plays a central role in the execution-phase of cell apoptosis. It was evaluated the effect of the cycled peptide B on the caspase 3 activity in human epidermal keratinocytes from adult (HEKa) subjected to endoplasmic reticulum (ER) stress.
HEKa cells were seeded in a black 96-well plate at a density of 18.000 cell/well in Dermal Cell Basal Medium (DCBM) and incubated at 37 °C in a humidified atmosphere with 5% CO2. After 24 h of incubation, cells were treated with 0.15 µg/mL BFA alone or in the presence of 0.005 mg/mL of the cycled peptide B and returned to the incubator for 24 h more. Untreated cells (Basal) were used as negative control samples. 24 hours after treatment, caspase 3 activity was evaluated using Caspase-Glo® 3/7 Assay System, following manufacturer instructions.
Each condition was performed at least in triplicates (n=3) in three independent experiments (N=3). For all data, mean values of relative fluorescence units (RFU) of the different experiments and SEM values are shown. All data was normalized as follows: % vs BFA = (RFU treated cells)/(RFU BFA treated cells) × 100 [formula]
Statistical data analysis was performed using Student t-test by comparison of % activity from test substance vs BFA-treated cells, *p<0.05, **p<0.01, ***p<0.001.

Ends that are not written are not given here. Peptide text beside a SMILES is read from it.

One may read the viability as a read-out of living cells in per cent, often relative to untreated cells. As for `CC(C)C[C@@H]1NC(=O)[C@H](C)NC(=O)[C@H](CCCNC(=N)N)NC(=O)[C@H](Cc2ccccc2)NC(=O)[C@H](Cc2c[nH]c3ccccc23)NC(=O)[C@H](Cc2c[nH]cn2)NC1=O` [Peptide A, cyclo-Trp-Phe-Arg-Ala-Leu-His] (cyclo(ALHWFR)), the viability at 24 h in data set [1] (0.001 mg/mL peptide) was 103%; in data set [1] (0.005 mg/mL peptide) it was 108%; in data set [1] (0.01 mg/mL peptide), 109%; in data set [1] (0.05 mg/mL peptide), 93.8%; in data set [1] (0.1 mg/mL peptide), 88.3%; in data set [1] (0.5 mg/mL peptide) it was 75%. For the same compound, the viability at 24 h in data set [2] (0.001 mg/mL peptide) came to 101%; in data set [2] (0.005 mg/mL peptide) it was 103%; in data set [2] (0.01 mg/mL peptide), 94.5%; in data set [2] (0.05 mg/mL peptide) it was 103%; in data set [2] (0.1 mg/mL peptide), 92.3%; in data set [2] (0.5 mg/mL peptide) it was 81.5%. Besides, the “CALR expression, Effect” value in data set [3] was “Upregulation”. In addition, in data set [3] (Basal = 1.00), the “CALR expression, Ratio” value is 1.34. In addition, the “caspase 3 activity” value in data set [4] is “significantly reduce”.
As to “FWHALR [Linear peptide B, reference compound]”, the “CALR expression, Effect” value in data set [3] is recorded as “No effect”.
